Earlier results as cited in patent EP2343054A1, “Pellets and microparticles of pravastatin sodium and a process of making them” (LEK Pharmaceuticals d.d., priority 2010, dated 2011).

Experiments:
[1] = pH of 7.0
[2] = pH 3 or less, as found in the stomach

| partition coefficient (octanol/water) [1] | stability at low pH [2] | average oral absorption | absolute bioavailability (oral) | Compound |
| --- | --- | --- | --- | --- |
| 0.23 | very unstable |  |  | CC[C@H](C)C(=O)O[C@H]1C[C@H](O)C=C2C=C[C@H](C)[C@H](CC[C@@H](O)C[C@@H](O)CC(=O)O)[C@H]21 [Pravastatin sodium] |
|  |  | 34% | 17% | CC[C@H](C)C(=O)O[C@H]1C[C@H](O)C=C2C=C[C@H](C)[C@H](CC[C@@H](O)C[C@@H](O)CC(=O)O)[C@H]21 [pravastatin, (+)-(3R, 5R) -3,5-dihydroxy-7-[(1 S, 2S, 6S, 8S, 8aR)-6-hydroxy-2-methyl-8-[(S)-2-methylbutyryloxy]-1,2,6,7,8,8a-hexahydro-1-naphthyl] heptanoate] |
